Measured values from ChEMBL document CHEMBL6071169, “Maydisens, Sesterterpenoids with Anti-MDR Activity from Bipolaris maydis” (J Nat Prod, 2024).
The source made the active and inactive calls. No cut-off for these calls is given here.

What was measured:
[1] = tested on: LNCaP C4-2B; assay: Cytotoxicity against human LNCaP C4-2B cells at 20 uM incubated for 72 hrs by CCK-8 method; assay type: functional, cell-based
[2] = tested on: A549; assay: Cytotoxicity against human A549 cells at 20 uM incubated for 72 hrs by CCK-8 method; assay type: functional, cell-based
[3] = tested on: MDA-MB-453; assay: Cytotoxicity against human MDA-MB-453 cells at 20 uM incubated for 72 hrs by CCK-8 method; assay type: functional, cell-based
[4] = tested on: SW620/AD300; assay: Cytotoxicity against human SW620/AD300 cells at 20 uM incubated for 72 hrs by CCK-8 method; assay type: functional, cell-based
[5] = tested on: SW620/AD300; assay: Reversal of paclitaxel resistance in human SW620/AD300 cells assessed as reduction in paclitaxel IC50 at 20 uM and measured after 72 hrs by CCK-8 method (reference value: 3.4 +/- 0.1 microM); assay type: functional, cell-based; details: SW620/AD300, 72 h
[6] = tested on: SW620/AD300; assay: Reversal of paclitaxel resistance in human SW620/AD300 cells assessed as reversal fold by measuring ratio of paclitaxel IC50 to paclitaxel IC50 in presence of test compound at 20 uM and measured after 72 hrs by CCK-8 method; assay type: functional
[7] = tested on: SW620/AD300; assay: Inhibition of colony formation in human SW620/AD300 cells assessed as decrease in colony count at 20 uM measured after 7 days in presence of paclitaxel by crystal violet staining based analysis; assay type: functional, cell-based; details: time 7.0 day
[8] = tested on: SW620/AD300; assay: Inhibition of colony formation in human SW620/AD300 cells assessed as decrease in colony count at 5 uM measured after 7 days in presence of paclitaxel by crystal violet staining based analysis; assay type: functional, cell-based; details: time 7.0 day
[9] = tested on: SW620/AD300; assay: Inhibition of colony formation in human SW620/AD300 cells assessed as decrease in colony count at 20 uM measured after 7 days by crystal violet staining based analysis; assay type: functional, cell-based; details: time 7.0 day
[10] = tested on: SW620/AD300; assay: Induction of cell cycle analysis in human SW620/AD300 cells assessed as increase in accumulation of cells at G2/M phase measured after 24 hrs by flow cytometry analysis; assay type: functional, cell-based; details: dose 5-20 µM
[11] = tested on: SW620/AD300; assay: Induction of cell cycle analysis in human SW620/AD300 cells assessed as increase in accumulation of cells at G0/G1 phase at 5 to 20 uM measured after 24 hrs by flow cytometry analysis; assay type: functional, cell-based; details: dose 5-20 µM
[12] = tested on: SW620/AD300; assay: Inhibition of colony formation in human SW620/AD300 cells assessed as decrease in colony count at 1 uM measured after 7 days by crystal violet staining based analysis; assay type: functional, cell-based; details: time 7.0 day

Structure (SMILES) | Activity [1] | Activity [2] | Activity [3] | Activity [4] | IC50 [5] | Ratio IC50 [6] | inhibition [7] | inhibition [8] | inhibition [9] | Activity [10] | Activity [11] | inhibition [12]
CC(C)=CCC[C@H](C)[C@H]1CC[C@]2(C)C[C@@H]3C(C)=CC(=O)[C@H]3[C@@H](CO)/C=C\[C@@H]12 | inactive | inactive | inactive | inactive |  |  |  |  |  |  |  | 
CC(C)=C/C=C/[C@H](C)[C@H]1CC[C@]2(C)C[C@@H]3C(C)=CC(=O)[C@H]3/C(CO)=C\C[C@@H]12 | inactive | inactive | inactive | inactive |  |  |  |  |  |  |  | 
COC(OC)/C1=C/[C@H](O)[C@H]2[C@@H]([C@@H](C)CCC=C(C)C)CC[C@]2(C)C[C@@H]2C(C)=CC(=O)[C@@H]12 | inactive | inactive | inactive | inactive | 0.25 µM | 13 |  |  |  |  |  | 
CC(C)=CCC[C@H](C)[C@H]1CC[C@]2(C)C[C@@H]3C(CO)=CC(=O)[C@H]3/C(C)=C\C[C@@H]12 | inactive | inactive | inactive | inactive |  |  |  |  |  |  |  | 
CC(C)=CCC[C@H](C)[C@H]1CC[C@]2(C)CC3=C(C(=O)C[C@H]3C)/C(CO)=C\C[C@@H]12 | inactive | inactive | inactive | inactive |  |  |  |  |  |  |  | 
C/C(=C\CC[C@](C)(O)[C@H]1CC[C@]2(C)C/C=C(\C)CC/C=C(\C)CC[C@@H]12)CO | inactive | inactive | inactive | inactive |  |  |  |  |  |  |  | 
CC(C)=CCC[C@H](C)C1=CC[C@]2(C)C[C@@H]3C(C)=CC(=O)[C@H]3/C(CO)=C\C[C@@H]12 | inactive | inactive | inactive | inactive | 0.05 µM | 72 | Active | Active | inactive | Dose-Dependent Effect | Active | 
C/C1=C\C[C@@]2(C)CC[C@H]([C@@H](C)CC/C=C(\C)C(=O)O)/C2=C/C[C@@]2(C)O[C@@H]2CC1 | inactive | inactive | inactive | inactive |  |  |  |  |  |  |  | 
C/C1=C/C[C@H]2[C@@H]([C@@H](C)CC/C=C(\C)CO)CC[C@]2(C)C/C=C(\C)CC[C@@H]1O | inactive | inactive | inactive | inactive |  |  |  |  |  |  |  | 
CC(C)=CCC[C@H](C)C1=CC[C@]2(C)C[C@@H]3C(C)=CC(=O)[C@H]3/C(C=O)=C\C=C\12 | inactive | inactive | inactive | inactive |  |  |  |  |  |  |  | 
C/C1=C/C[C@H]2[C@@H]([C@@H](C)CC/C=C(\C)C(=O)O)CC[C@]2(C)C/C=C(\C)CC[C@@H]1O | inactive | inactive | inactive | inactive |  |  |  |  |  |  |  | 
CC(C)=CCC[C@H](C)[C@H]1CC[C@]2(C)C[C@@]3(O)[C@H](C)CC(=O)[C@@H]3/C(CO)=C\C[C@@H]12 | inactive | inactive | inactive | inactive | 1 µM | 3 |  |  |  |  |  | 
CC(=O)O[C@H]1C(=O)[C@@]2(C)[C@H]([C@H](OC(=O)c3ccccc3)[C@]3(O)C[C@H](OC(=O)[C@H](O)[C@@H](NC(=O)c4ccccc4)c4ccccc4)C(C)=C1C3(C)C)[C@]1(OC(C)=O)CO[C@@H]1C[C@@H]2O |  |  |  |  |  |  |  |  |  |  |  | inactive
CC(C)=CC(=O)C[C@H](C)[C@H]1CC[C@]2(C)C[C@@H]3C(C)=CC(=O)[C@H]3/C(CO)=C\C[C@@H]12 | inactive | inactive | inactive | inactive | 0.2 µM | 17 |  |  |  |  |  | 
